In ChEMBL document CHEMBL5120819, “Tanzawaic Acids from a Deep-Sea Derived Penicillium Species” (J Nat Prod, 2022):

Legend:
[1] = Cytotoxicity against human A549 cells assessed as reduction in cell viability at 13 uM by SRB assay relative to control; assay type: toxicity, cell-based; details: read-out: GI
Escherichia coli = experiment: […] activity against Escherichia coli ATCC 35218 assessed as reduction in microbial growth after 12 to 18 hrs by microbroth dilution method; assay type: functional; details: time 12-18 hrs
Candida albicans = experiment: Antifungal activity against Candida albicans ATCC 10231 assessed as reduction in microbial growth after 12 to 18 hrs by microbroth dilution method; assay type: functional; details: time 12-18 hrs

SMILES | inhibition at 13 µM [1] | MIC (Escherichia coli) | MIC (Candida albicans)
COc1ccc([C@@H]2SS[C@@]34C[C@]5(O)[C@H](OC(=O)/C=C/C=C/c6c(C)ccc7c6[C@H](C)C[C@H](C)C7)C=C[C@@H](O)[C@@H]5ON3C(=O)[C@@H]2N(C)C4=O)c(O)c1OC | 90.7% |  | 
COc1ccc([C@@H]2SS[C@@]34C[C@]5(O)[C@H](OC(=O)/C=C/C=C/[C@@H]6[C@H]7[C@H](C)C[C@H](C)C[C@@H]7C=C[C@@H]6C)C=C[C@@H](O)[C@@H]5ON3C(=O)[C@@H]2N(C)C4=O)c(O)c1OC | 51.7% |  | 
C[C@H]1C[C@@H](C)[C@@H]2[C@@H](/C=C/C=C/C(=O)O)[C@@H](C)C=C[C@H]2C1 |  | 10 µg/mL | 20 µg/mL
COc1ccc([C@@H]2SS[C@@]34C[C@]5(O)[C@H](O)C=C[C@@H](O)[C@@H]5ON3C(=O)[C@@H]2N(C)C4=O)c(O)c1OC |  |  | 30 µg/mL
